Literature values, collected in US20250108152A1, “DRUG ELUTING POLYMER COMPOSED OF BIODEGRADABLE POLYMERS APPLIED TO SURFACE OF MEDICAL DEVICE” (The General Hospital Corporation, priority 2016, published 2025).

| SMILES | fraction of intravenous dose that penetrates bone |
| --- | --- |
| CO/N=C(\C(=O)N[C@@H]1C(=O)N2C(C(=O)O)=C(CSc3nc(=O)c(=O)[nH]n3C)CS[C@H]12)c1csc(N)n1 [ceftriaxone] | 5-19% |
| CN[C@H](CC(C)C)C(=O)N[C@H]1C(=O)N[C@@H](CC(N)=O)C(=O)N[C@H]2C(=O)N[C@H]3C(=O)N[C@H](C(=O)N[C@H](C(=O)O)c4cc(O)cc(O)c4-c4cc3ccc4O)[C@H](O)c3ccc(c(Cl)c3)Oc3cc2cc(c3O[C@@H]2O[C@H](CO)[C@@H](O)[C@H](O)[C@H]2O[C@H]2C[C@](C)(N)[C@H](O)[C@H](C)O2)Oc2ccc(cc2Cl)[C@H]1O [vancomycin] | 5-20% |
| Cc1nnc(SCC2=C(C(=O)O)N3C(=O)[C@@H](NC(=O)Cn4cnnn4)[C@H]3SC2)s1 [cefazolin] | 7-15% |
